In ChEMBL document CHEMBL5230122, “Natural products and other inhibitors of F1FO ATP synthase” (Eur J Med Chem, 2020) one finds IC50 data, which are given here for twelve molecules.

Each structure is given as a SMILES string.

In general, IC50 refers to the concentration that inhibits the measured activity by half.

In one assay the test system is NCI-H292. The assay is described as follows: Anticancer activity against human NCI-H292 cells assessed as reduction in cell proliferation incubated for 48 hrs by Calcein AM and Pluronic F-127 staining based fluorescence plate reader analysis. Type of assay: functional. To be noted: NCI-H292, 48 h.
For the next assay, the system named is A549. The assay is described as follows: Antiproliferative activity against human A549 cells assessed as reduction in cell viability incubated for 48 hrs by MTT assay. In kind it is functional, cell-based. The settings on record: A549, 48 h. Background: Tetrazolium assays rely on reduction of a dye to a coloured formazan, in cell work by metabolically active cells.

The next assay concerns HL-60. The assay is described as follows: Antiproliferative activity against human HL-60 cells assessed as reduction in cell viability incubated for 48 hrs by MTT assay. To be noted: HL-60, 48 h. In kind it is functional, cell-based.
A further assay relates to SMMC-7721. The assay is described as follows: Antiproliferative activity against human SMMC-7721 cells assessed as reduction in cell viability incubated for 48 hrs by MTT assay. In kind it is functional, cell-based. The settings on record: SMMC-7721, 48 h.
The subject of another assay is MCF7. The assay is described as follows: Antiproliferative activity against human MCF7 cells assessed as reduction in cell viability incubated for 48 hrs by MTT assay. The settings on record: MCF7, 48 h. Type of assay: functional, cell-based.
A further assay has as its system SW480. Nature of the assay: Antiproliferative activity against human SW480 cells assessed as reduction in cell viability incubated for 48 hrs by MTT assay. In kind it is functional, cell-based. To be noted: SW480, 48 h.

For the molecule `COC[C@@H](C[C@H]1O[C@@](O)(C[C@@H]2C[C@H](OC)CCC/C=C(C)/C=C/[C@@H](O[C@@H]3O[C@@H](C)[C@@H](OC)[C@@H](O)[C@@H]3O)[C@H](C)/C=C(C)/C=C(C)/C=C(\C)C(=O)O2)[C@H](C)[C@@H](O)[C@H]1C)O[C@H]1C[C@](C)(O)[C@@H](O[C@H]2C[C@@H](OC)[C@H](O)[C@@H](C)O2)[C@H](C)O1`, the IC50 with NCI-H292 was below 0.1 µM.

As for `CC[C@H]1O[C@@]2(C)[C@H](OC(C)=O)[C@@]1(C)O[C@@H](/C=C/C=C/C=O)[C@@H]2O`, the IC50 in the assay on A549, in the assay on HL-60, in the assay on SMMC-7721, with MCF7 and in the assay with SW480 was above 40 µM throughout.

On to `CC[C@H]1O[C@@]2(C)[C@H](OCCC(=O)O)[C@@]1(C)O[C@@H](/C=C/C=C/C=C/c1oc(=O)cc(OC)c1C)[C@@H]2O`, for which the IC50 with A549, in the assay on HL-60, in the assay on SMMC-7721, in the assay with MCF7 and with SW480 was above 40 µM in each case.

In the case of `COC[C@@H](C[C@H]1O[C@@](O)([C@H](O)[C@@H]2C[C@H](OC)CCC/C=C(C)/C=C/[C@@H](O[C@@H]3O[C@@H](C)[C@H](OC)[C@@H](O)[C@@H]3O)[C@H](C)/C=C(C)/C=C(C)/C=C(\C)C(=O)O2)[C@H](C)[C@@H](O)[C@H]1C)O[C@H]1C[C@](C)(O)[C@@H](O[C@H]2C[C@@H](OC)[C@H](O)[C@@H](C)O2)[C@H](C)O1`, the half-maximal inhibitory concentration (IC50) with NCI-H292 is 0.007 µM.

`CC[C@H]1O[C@@]2(C)[C@H](OC(C)=O)[C@@]1(C)O[C@@H](/C=C/C=C/C=C/c1cc(OC)cc(=O)o1)[C@@H]2O`: the IC50 in the assay with A549, in the assay on HL-60, in the assay with SMMC-7721, in the assay on MCF7 and in the assay with SW480 was above 40 µM in each case.

With `CC[C@H]1O[C@@]2(C)[C@H](OC(C)=O)[C@@]1(C)O[C@@H](C(O)/C=C/C(/C=C/c1oc(=O)cc(OC)c1C)OC)[C@@H]2O` (some centres not stated), the IC50 in the assay with A549, with HL-60, with SMMC-7721, in the assay on MCF7 and in the assay with SW480 was above 40 µM throughout.

As for `CC[C@H]1O[C@@]2(C)[C@H](OC(C)=O)[C@@]1(C)O[C@@H](CC(O)/C=C/C=C/c1oc(=O)cc(OC)c1C)[C@@H]2O` (some centres not stated), the IC50 in the assay on A549, with HL-60, with SMMC-7721, in the assay with MCF7 and in the assay with SW480 was above 40 µM in each case.

With `CC[C@H]1O[C@@]2(C)[C@H](OC(C)=O)[C@@]1(C)O[C@@H](C(O)C(/C=C/C=C/c1oc(=O)cc(OC)c1C)OC)[C@@H]2O` (some centres not stated), the IC50 in the assay on A549, in the assay with HL-60, in the assay on SMMC-7721, in the assay on MCF7 and with SW480 was above 40 µM each time.

Turning to `CC[C@H]1O[C@@]2(C)[C@H](O)[C@@]1(C)O[C@@H](CC(O)/C=C/C=C/c1oc(=O)cc(OC)c1C)[C@@H]2O` (some centres not stated), the IC50 in the assay with A549, in the assay with HL-60, with SMMC-7721, with MCF7 and with SW480 was above 40 µM in each case.

For `CC[C@H]1O[C@@]2(C)[C@H](OC(C)=O)[C@@]1(C)O[C@@H](C(O)/C=C/C(O)/C=C/c1oc(=O)cc(OC)c1C)[C@@H]2O` (some centres not stated), the IC50 with A549 is above 40 µM; in the assay with HL-60 it was above 40 µM; in the assay with SMMC-7721, 18.3 µM; in the assay with MCF7, above 40 µM; in the assay on SW480 it was 14.4 µM.

For the molecule `COc1cc(/C=C/C=C/C=C/[C@]2(C)O[C@]3(C)[C@@H](O)[C@](C)(O[C@@H]3C)[C@H]2O)oc(=O)c1`, the IC50 in the assay on A549, in the assay with HL-60, with SMMC-7721, in the assay on MCF7 and with SW480 was above 40 µM each time.

`CC[C@H]1O[C@@]2(C)[C@H](OC(C)=O)[C@@]1(C)O[C@@H](C(O)C(O)/C=C/C=C/c1oc(=O)cc(OC)c1C)[C@@H]2O` (some centres not stated): the IC50 with A549, in the assay with HL-60, in the assay on SMMC-7721, with MCF7 and with SW480 was above 40 µM each time.
